Measured values: patent publication US20090221568A1, “Synthesis of Inhibitors of FtsZ” (priority 2005, published 2009)
Like-named read-outs stand apart in the source and are kept apart here.

Assays:
[1] = tested on: B. subtilis; conditions: cited from earlier work
[2] = tested on: M. smegmatis; conditions: cited from earlier work
[3] = biological target: T1, E. coli FtsZ (Escherichia coli, UniProt P0A9A6); assay: FtsZ GTPase assay (malachite green); format: biochemical
T1 construct: made in house; host or cells: E. coli BL21(λDE3)
T1 sequence (P0A9A6 whole entry): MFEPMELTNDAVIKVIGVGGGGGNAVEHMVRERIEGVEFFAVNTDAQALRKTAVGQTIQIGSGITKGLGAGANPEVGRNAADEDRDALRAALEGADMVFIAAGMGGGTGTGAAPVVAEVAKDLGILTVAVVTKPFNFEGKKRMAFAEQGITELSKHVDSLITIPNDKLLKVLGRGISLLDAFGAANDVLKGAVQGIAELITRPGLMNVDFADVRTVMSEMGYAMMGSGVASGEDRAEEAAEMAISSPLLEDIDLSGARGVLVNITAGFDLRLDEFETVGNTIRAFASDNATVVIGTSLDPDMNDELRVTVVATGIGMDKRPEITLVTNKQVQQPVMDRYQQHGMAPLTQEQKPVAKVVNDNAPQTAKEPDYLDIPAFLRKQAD
Procedure: GTPase Assay: Untagged E. coli FtsZ was expressed from pET-3Z^+ in BL21(λDE3) cells (RayChaudhuri, D.; Park, J. T. Nature 1992, 359, 251-254) and purified using a two-step ammonium sulfate fractionation (Romberg et al. J. Biol. Chem. 2001, 276, 11743-11753). FtsZ GTPase assay was performed essentially as described by Margalit et al. (Margalit et al. Proc. Natl. Acad. Sci. U.S.A. 2004, 101, 11821-11826). Briefly, 2 μM E. coli FtsZ in polymerization buffer (4-morpholinepropanesulfonic acid, pH 6.5, 50 mM KCl, 5 mM MgCl2) was preincubated with or without varying concentrations of test compounds (in dimethyl sulfoxide, DMSO) such that the DMSO concentrations in the samples were ˜2%. The control tubes received 2% DMSO alone. After a 5-min preincubation at 25° C., the reactions were initiated by adding 0.5 mM GTP. Aliquots were withdrawn after 5, 15 and 25 ininute intervals and quenched with 50 mM EDTA before color development with the malachite green solution [2 volumes malachite green (0.8 mg/ml)/1 volume polyvinyl alcohol (23.2 mg/ml)/1 volume ammonium molybdate (57.2 mg/ml in 2H2O:3HCl)/2 volumes H2O]. IC50 values were determined from the relative slopes of GTP hydrolysis at different inhibitor concentrations compared to the control with DMSO only.

[4] = tested on: S. aureus; conditions: cited from earlier work
[5] = tested on: bacterial strains; conditions: higher MICs indicate that a strain is becoming resistant; cited from earlier work
[6] = tested on: E. coli; conditions: dash with footnote b = no significant activity; cited from earlier work
[7] = tested on: P. aeruginosa; conditions: dash with footnote b = no significant activity; cited from earlier work
[8] = biological target: T1, E. coli FtsZ; conditions: value from Margalit et al. 2004 (footnote a); read-out: Inhibition of E. coli FtsZ GTPase activity, IC50; cited from earlier work
[9] = 2 μM E. coli FtsZ, 0.5 mM GTP, pH 6.5, 25° C., read-out: Inhibition of E. coli FtsZ GTPase activity, IC50

| Structure (SMILES) | Antimicrobial activities (MICs) B. subtilis [1] [µM] | Inhibition of E. coli GTPase activity, in words [3] | Antimicrobial activities (MICs) S. aureus [4] [µM] | effective MIC defined by NCCLS [5] [µM] | further results |
| --- | --- | --- | --- | --- | --- |
| O=C1C[C@@H](c2ccccc2)Oc2c(Cc3ccccc3O)c(O)c(Cc3ccccc3O)c(O)c21 (racemic) [Compound 2, (±)-Dichamanetin] | 1.7 | potent inhibitors | 1.7 | – | Antimicrobial activities (MICs) M. smegmatis [2]: 3.4 µM; IC50 [3, 9]: 12.5 ± 0.5 µM |
| CC[C@H]1OC(=O)[C@H](C)[C@@H](O[C@H]2C[C@@](C)(OC)[C@@H](O)[C@H](C)O2)[C@H](C)[C@@H](O[C@@H]2O[C@H](C)C[C@H](N(C)C)[C@H]2O)[C@](C)(O)C[C@@H](C)C(=O)[C@H](C)[C@@H](O)[C@]1(C)O [erythromycin] | – | – | – | 0.4 | – |
| CC1(C)CC(=O)c2c(O)c(Cc3ccccc3O)c(O)c(Cc3ccccc3O)c2O1 [5,7-dihydroxy-6,8-bis(2-hydroxybenzyl)-2,2-dimethylchroman-4-one] | – | – | – | – | IC50 ([3]; FIG. 27 legend, test not named, presumably FtsZ GTPase, read-out: IC50): 21 µM |
| O=C1C[C@@H](c2ccccc2)Oc2c(Cc3cc(Cc4ccccc4O)ccc3O)c(O)c(Cc3cc(Cc4ccccc4O)ccc3O)c(O)c21 (racemic) [Compound 3, (±)-2′″-Hydroxy-5″-benzylisouvarinol-B] | 2.6 | potent inhibitors | 10.7 | – | Antimicrobial activities (MICs) E. coli [6]: 2.3 µM; Antimicrobial activities (MICs) M. smegmatis [2]: 3.8 µM; IC50 [3]: 8.3 ± 0.5 µM; Antimicrobial activities (MICs) P. aeruginosa [7]: 15.4 µM |
| CC(=O)c1c(O)c(Cc2ccccc2O)c(O)c(Cc2ccccc2O)c1O [Compound 11, 2,4,6-Trihydroxy-3,5-di(2′-hydroxybenzyl)-acetophenone] | – | much less potent | – | – | IC50 [3, 9]: 60.4 ± 2.2 µM |
| CN[C@H](CC(C)C)C(=O)N[C@H]1C(=O)N[C@@H](CC(N)=O)C(=O)N[C@H]2C(=O)N[C@H]3C(=O)N[C@H](C(=O)N[C@H](C(=O)O)c4cc(O)cc(O)c4-c4cc3ccc4O)[C@H](O)c3ccc(c(Cl)c3)Oc3cc2cc(c3O[C@@H]2O[C@H](CO)[C@@H](O)[C@H](O)[C@H]2O[C@H]2C[C@](C)(N)[C@H](O)[C@H](C)O2)Oc2ccc(cc2Cl)[C@H]1O [vancomycin] | – | – | – | 5.8 | – |
| Oc1ccc(Cl)cc1Cc1cc(Cl)cc(Cc2cc(Cl)ccc2O)c1O [Compound 1, Zantrin Z1, reference compound] | 1.25 | – | 2.5 | – | Antimicrobial activities (MICs) E. coli [6]: 20 µM; Antimicrobial activities (MICs) P. aeruginosa [7]: 40 µM; IC50 [8]: 5 ± 0.5 µM |
| COc1cccc(OC)c1C(=O)N[C@@H]1C(=O)N2[C@@H]1SC(C)(C)[C@@H]2C(=O)O [methicillin] | – | – | – | 0.8 | – |
